Reference: patent publication US20070020193A1, “Dronabinol compositions and methods for using same” (priority 2005, published 2007)
“Also recorded” adds a separate entry of the source.

Tests used:
[1] = Example 1 single rising dose inhaled delta-9-THC study: plasma pharmacokinetics
Protocol: A randomized, double blind, placebo controlled, three way crossover, single rising dose human clinical study in two sequential groups (Groups I and II) of nine young healthy male subjects (18-45 years of age and body mass index (BMI) of 20-26 kg/m^2) of a metered dose inhalation composition according to one embodiment the present invention was conducted. Each subject received two ascending single doses of inhaled delta-9-THC and one single dose of inhaled placebo according to a three-way crossover balanced incomplete block design. The administered composition is detailed in Table 1. Composition I provides 0.3 mg per actuation, while Composition II provides 1.2 mg per actuation.
Each sequential dose level or period was separated by a washout period of two weeks, during which an interim safety and pharmacokinetic analysis was performed. A third group (Group III) of nine elderly healthy male and female subjects (65-80 years old and BMI 18-30 kg/m^2) was added after completion of the sixth study period to participate in a single treatment period. […] Five dose levels were evaluated: 0.3 mg, 1.2 mg, and 2.4 mg in Group I, 3.6 mg, 7.2 mg, and 9.6 mg in Group II, and 3.6 mg in Group III. Subjects were confined to the study center from the day prior to dosing until the 48 hour blood sample. Subjects returned to the center for 72, 96 and 120 hour pharmacokinetic samples. Various pharmacokinetic and pharmacodynamic measurements and sampling were taken according to the Assessment Flow Charts in FIG. 1 and FIG. 2. Safety was measured by monitoring adverse events, physical examination, clinical laboratory and pulmonary function tests, vital signs, 12 lead ECG, and telemetry.
Safety, pharmacokinetic and pharmacodynamic variables were estimated. Plasma concentrations of delta-9-THC (THC), 11-hydroxy-tetrahydrocanabinol (11-OH-THC) and delta-9-tetrahydrocannbinol-carboxylic acid (THC-COOH) were determined for pharmacokinetic analysis.
Whole blood samples were collected according to the assessment flowchart in EDTA tubes through venepuncture or indwelling catheter. Samples were immediately placed on ice and subsequently centrifuged within 30 minutes at 1,500 g for 10 minutes. Plasma was transferred into a 5 ml screw cap polypropylene tube, stoppered and stored at below minus 20° C. until transfer to the analytical laboratory for analysis. […] The measurement ranges were 0.05-30 ng/ml for delta-9-THC, 0.04-30 ng/ml for 11-OH-THC, and 0.25-10 ng/ml for THC-COOH.
Number of subjects, mean, standard deviation, coefficient variable (%) and geometric mean were calculated for all pharmacokinetic parameters.
For Example 1: A mixed ANOVA model with group and dose fixed effect and subject within group by dose as random effect was performed on the logarithms of the dose normalized pharmacokinetic parameters AUC, AUC0-t and Cmax. The overall treatment effect was tested by conventional F-test with Satterthwaites correction. Dose proportionality was tested using Helmert Contrasts and Reverse Helmert Contrasts. The within and between subject coefficient of variances were calculated from the estimated covariance parameters. Per dose level geometric means with 90% confidence interval were calculated for the dose-normalized values from the least squared means analysis outcomes. The difference between young and elderly subjects was explored using a one-way ANOVA.

[2] = test system: healthy subjects; experiment: Example 2: 12-lead ECG and telemetric cardiac monitoring; type: in vivo, human; conditions: for heart rate, mean value (ECG) / heart rate, mean increase above baseline / heart rate, mean increase above pre-dose value on Day 1: Day 1, 20 minutes after dosing; for time for heart rate to return to baseline after dosing: Day 1
Protocol: (§1) Adverse events were recorded based on original descriptions from subject responses to queries. Complete medical histories and physical examinations were conducted. Vital signs were monitored, ECGs were recorded along with pulmonary function tests and laboratory examinations.
Listings of values for each subject were presented with abnormal or out of range values for vital signs, laboratory assays, ECGs, pulmonary function tests, and physical examinations. Descriptive statistics (n, mean, standard deviation (SD), minimum, median, maximum) for all clinical laboratory safety parameters, ECGs, pulmonary function tests, and vital signs were provided. ECGs and physical examinations were to be summarized in shift tables to show changes from baseline between normal and abnormal findings.

[3] = test system: healthy subjects; experiment: Example 2: safety, adverse events; type: in vivo, human; conditions: for events reported among subjects treated with active drug: all six subjects; for events considered probably or possibly related to study drug: all six subjects on active drug
Protocol: as §1
Treatment-emergent adverse events (TEAEs), defined as any event that begins or worsens after treatment with study medication, were summarized by MedDRA system organ class (SOC) for each treatment group. The number and percentage of subjects with TEAEs was tabulated for each treatment and with respect to maximum severity and relationship to study medication.

[4] = test system: healthy subjects; parameters: species or system human; conditions: in vivo

## CCCCCc1cc(O)c2c(c1)OC(C)(C)[C@@H]1CCC(C)=C[C@@H]21 [delta-9-THC, delta-9-tetrahydrocannabinol]
[1]; 7.2 and 9.6 mg doses
  Cmax and AUC versus dose: less than proportional increase
[1]; Groups I and II, doses from 0.3-3.6 mg
  Cmax and AUC versus dose: dose-related increase
[1]; male, human, plasma, inhaled, 2.4 mg
  Cmax: 0.0236 µg/mL
[2]; Group I (1.2 mg)
  heart rate, mean value (ECG): 67 bpm
[2]; Group I
  time for heart rate to return to baseline after dosing: ≤ 40 min
  heart rate, mean increase above baseline: 4 bpm
  heart rate, mean increase above pre-dose value on Day 1: 13 bpm
[2]; Group II (3.6 mg)
  heart rate, mean value (ECG): 81 bpm
[2]; Group II
  time for heart rate to return to baseline after dosing: ≤ 240 min
  heart rate, mean increase above baseline: 14 bpm
  heart rate, mean increase above pre-dose value on Day 1: 21 bpm
[2]; Group II, first dose
  time of return of QTc towards baseline after dosing: ≤ 1 h
[2]; each assessment time point
  Individual QTc values: less than 450 msec
  QTc individual values: < 422 ms
  QTc mean values: < 395 ms
[2]; in vivo
  QTc-intervals using Fridericia's correction: no apparent effect
  telemetric cardiac monitoring: no clinically significant abnormalities
[2]; single and multiple inhalational dosing
  ECG parameters: no clinically significant abnormalities or trends
[3]; 1.2 mg, Group I, all six
  subjects reporting cough: 100%
[3]; 3.6 mg for two weeks
  subjects with increased liver function tests (summary): three out of nine subjects
[3]; 3.6 mg, Group II, five out of six
  subjects reporting cough: 83.3%
[3]; Group 1, one subject
  subjects reporting euphoric mood: 16.7%
[3]; Group I (1.2 mg dose level)
  most frequently reported TEAEs: cough and somnolence
[3]; Group I Active (1.2 mg)
  TEAEs Probable/Possible, E = number of adverse events: 13
  TEAEs Probable/Possible, N = number of subjects: 6
  TEAEs Unlikely/Unrelated, E = number of adverse events: 7
  TEAEs Unlikely/Unrelated, N = number of subjects: 3
[3]; Group I, 1.2 mg
  Any related TEAE, n (x %) subjects: 6 (100%)
  Any related TEAE, number AEs: 13
  Subjects with at least one AE, n (x %): 6 (100%)
  Subjects with at least one AE, number AEs: 20
[3]; Group I
  events reported among subjects treated with active drug: 27 events
  events considered probably or possibly related to study drug: 13 events
[3]; Group II (3.6 mg dose level)
  most frequently reported TEAEs: cough, headache, and euphoric mood
[3]; Group II Active (3.6 mg)
  TEAEs Probable/Possible, E = number of adverse events: 17
  TEAEs Probable/Possible, N = number of subjects: 6
  TEAEs Unlikely/Unrelated, E = number of adverse events: 9
  TEAEs Unlikely/Unrelated, N = number of subjects: 3
[3]; Group II, 3.6 mg
  Any related TEAE, n (x %) subjects: 6 (100%)
  Any related TEAE, number AEs: 17
  Subjects with at least one AE, n (x %): 6 (100%)
  Subjects with at least one AE, number AEs: 27
  subjects with liver enzymes elevated at follow-up: three subjects
[3]; Group II
  events reported among subjects treated with active drug: 19 events
  events considered probably or possibly related to study drug: 17 events
[3]; Group III (so in the source), three subjects
  subjects reporting euphoric mood: 50.0%
[3]; active treatment, Group I
  duration of intermittent cough: between four and nine days
[3]; active treatment, Group II
  duration of intermittent cough: between six and 18 days
[3]; active treatment, two subjects in each group
  subjects reporting somnolence: 33.3%
[3]; single and multiple dosing with 1.2 and 3.6 mg, pulmonary inhaled
  overall safety and tolerability: safe and well-tolerated
[3]; summary
  vital signs, ECG, physical examination, telemetric monitoring and pulmonary function tests: No dose-related trends or clinically significant changes
[3]; whole study
  deaths or serious adverse events: No deaths or serious adverse events
  intensity of TEAEs: mild intensity
  serious or severe AEs, AEs leading to premature termination: no serious or severe AEs
[4]
  Choice reaction time: Significant decrements
  Digit Vigilance: slight decrement; also recorded: more marked decrements; also recorded: marked decrement
  Digit Vigilance, primary analysis: failed to show significant dose-time interaction
  Immediate word recall: No significant differences
  Numeric Working Memory Speed: significant decrements
  Numeric Working memory sensitivity index: No significant differences
  Spatial Working Memory Sensitivity Index: No significant differences
  Spatial Working Memory Speed: No significant differences
  delay of effects on VAS: up to two hours
  delay of effects on cognitive functioning: up to one hour
  delayed word recall, analysis: significant main effect of dose
  picture recognition sensitivity index: did not show any significant differences
  picture recognition speed: No significant differences
  word recognition speed: did not show any significant differences
  word sensitivity index (word recognition): No significant differences
